The values that follow come from patent publication US7569661B2, “Polypeptide scaffolds and use thereof” (Modpro AB, priority 2002, dated 2009).

Test [1] concerns the target T1, human carbonic anhydrase II, HCAII (Homo sapiens, UniProt P00918). The test is described as follows: Surface plasmon resonance-based steady state affinity, immobilized HCAII. To be noted: 1:1 binding model, peptide 40 nM to 10 μM. The method, then:
[Taylor, P. W.; King, R. W.; Burgen, A. S. V. Biochemistry 1970, 9, 2638-2645] […] Lond. B 1976, 193, 107-125]. […] 1.4 equivalents of Id were allowed to react with 1 equivalent of KE2-P or KE3-P in 50 mM Tris-HCl buffer at pH 8.0 and room temperature.

In test [2] the target is T1, human carbonic anhydrase II, HCAII. The test is described as follows: Fluorescence emission spectra of dansyl-labelled peptides in absence and presence of HCAII. Conditions: 1 μM peptide, 50 μM HCAII, 10 mM HBS buffer pH 7.4, 298 K, excitation 335 nm. The class given is binding.
Procedure: Dotted lines represent spectra in the absence of HCAII, solid lines represent spectra where 50 μM HCAII has been added.
Spectra were recorded of 1 μM peptide solutions in 10 mM HBS buffer at pH 7.4 and 298 K, in the absence and presence of 50 μM HCAII, with 1 μM solutions of KE2-P and KE3-P as negative controls, FIG. 2.

No end group written: not given here. *: point of attachment. Dansyl = CN(C)c1cccc2c(S(=O)(=O)*)cccc12

For `NS(=O)(=O)c1ccc(C(=O)NCCCCCC(=O)O)cc1` [Ic], binding in test [1] was characterised by a dissociation constant (Kd) of 0.044 µM. Consider “KE3-P: KE3 with dansyl fluorescent probe at the side chain of Lys15; control without ligand (NAADLEAKIRHLAEK(Dansyl)LAARGPCDAAQLAEQLARRFEAFARAG)”, for which the “increase of fluorescence intensity upon addition of HCAII” value in test [2] is recorded as “not affected”.
